Experimental findings from patent US20090068243A1, “Novel formulations for delivery of antiviral peptide therapeutics” (priority 2007, published 2009) are described below.

A short description of data set [1]: Helicity by circular dichroism (CD). In kind it is physicochemical. Conditions: usually percent helicity at 10 μM, 25° C. Here is the method:
(§1) Assessment of biophysical parameters included measurement of helicity and thermal stability. Helicity was assessed by circular dichroism (“CD”) as follows. Briefly, CD spectra were obtained using a spectrometer equipped with a thermoelectric temperature controller. The spectra was obtained at 25° C. with 0.5 nanometer (nm) steps from 200 to 260 nm, with a 1.5 nm bandwith, and a typical averaging time of 4 seconds/step. After the cell/buffer blank was subtracted, spectra were smoothed using a third-order least-squares polynomial fit with a conservative window size to give random residuals. Raw ellipticity values were converted to mean residue ellipticity using standard methods, and plotted was the wavelength (from 200 to 260 nm) versus [θ]×10−3 (degrees cm^2/dmol). Percent helicity values were then calculated using standard methods (usually expressed as percent helicity at 10 μM, 25° C.). Assessment of thermal stability was performed by monitoring the change in CD signal at 222 nm as temperature was raised in 2° C. steps, with 1 minute equilibration times. The stability for each sample (e.g., HIV fusion inhibitor peptide), as represented by the Tm value, is the temperature corresponding to the maximum value of the first derivative of the thermal transition.
(In general: Circular dichroism is the unequal absorption of left and right circularly polarised light.)

Data set [2] can be described thus: Thermal stability (Tm) by CD signal at 222 nm. It is filed as physicochemical. Conditions: CD at 222 nm, maximum of first derivative of thermal transition. The protocol:
as §1

For data set [3], the system named is HIV-IIIB. The following applies: 50% reduction in infectious virus titer. From the text: Assessment of biological properties included measurement of antiviral activity against HIV-1 strains. […] These assays score for reduction of infectious virus titer employing the indicator cell lines MAGI or the CCR5 expressing derivative cMAGI. Both cell lines exploit the ability of HIV-1 tat to transactivate the expression of a β-galactosidase reporter gene driven by the HIV-LTR. The β-gal reporter has been modified to localize in the nucleus and can be detected with the X-gal substrate as intense nuclear staining within a few days of infection. The number of stained nuclei can thus be interpreted as equal to the number of infectious virions in the challenge inoculum if there is only one round of infection prior to staining. […] In the MAGI and cMAGI assays, a 50% reduction in infectious titer (Vn/Vo=0.5) is significant, and provides the primary cutoff value for assessing antiviral activity (“IC50” is defined as the concentration of active ingredient resulting in a 50% reduction in infectious virus titer). […] The number of infected cells for each control and peptide dilution was determined with the CCD-imager, and then the IC50 was calculated (expressed in μg/ml).

For data set [4], the system named is HIV-Res. In kind it is cell-based, HIV-1. The following applies: resistant viral isolate "Res". An excerpt:
Assessment of biological properties included measurement of antiviral activity against HIV-1 strains. In determining antiviral activity (e.g., one measure being the ability to inhibit transmission of HIV to a target cell) of the HIV fusion inhibitor peptides, an in vitro assay which has been shown, by data generated using peptides derived from the HR regions of HIV gp41, to be predictive of antiviral activity observed in vivo was used. […] These assays score for reduction of infectious virus titer employing the indicator cell lines MAGI or the CCR5 expressing derivative cMAGI. Both cell lines exploit the ability of HIV-1 tat to transactivate the expression of a β-galactosidase reporter gene driven by the HIV-LTR. The β-gal reporter has been modified to localize in the nucleus and can be detected with the X-gal substrate as intense nuclear staining within a few days of infection. […] The number of infected cells for each control and peptide dilution was determined with the CCD-imager, and then the IC50 was calculated (expressed in μg/ml).
Viruses resistant to the antiviral activity of a peptide consisting of a base sequence can be produced using standard laboratory methods. […] The cultures are maintained and monitored until syncytia are present. […] The second round of culture is maintained and monitored for presence of virus resistant to the antiviral activity of the peptide. […]

Data set [5] in a line: Intravenous pharmacokinetics in cynomolgus monkeys. It is filed as in vivo, cynomolgus monkeys (Macaca fasicularis). Here is the method:
For determining pharmacokinetic properties, an HIV fusion inhibitor peptide or a base sequence from which an HIV fusion inhibitor peptide is derived was dosed intravenously in cynomolgus monkeys (Macaca fasicularis) (other animal models may be used for determining pharmacokinetic properties, as known in the art). At various times post-dose, blood samples were drawn and plasma isolated by centrifugation. Plasma samples were stored frozen until analysis by LC-MS (liquid chromatography/mass spectrometry) in the electrospray, positive-ion mode. An HIV fusion inhibitor or base sequence was eluted from a C18 or C8 HPLC column with a gradient of acetonitrile in a buffer of 10 mM ammonium acetate, pH 6.8. At the time of analysis, plasma samples were deproteinated with either two or three volumes of acetonitrile containing 0.5% formic acid. Duplicate calibration standards in cynomolgus plasma samples were prepared at the same time as the samples and analyzed before and after the samples containing either HIV fusion inhibitor peptide or base sequence. Pharmacokinetic properties were calculated from the plasma concentration-time data using either mono-exponential or bi-exponential mathematical models. Models were derived by non-linear least squares optimization. A 1/C^2 weighting of concentrations was used. The following equations were used to calculate area-under the plasma concentration vs. time curve (AUC), total body clearance (Cl), and terminal elimination half-life (t ½).
Where A and B are intercepts and a and b are the rate constants of the exponential equations describing the distribution and elimination phases, respectively. When mono-exponential models were used, the “A” and “a” properties were eliminated.
Cl=Dose/AUC (expressed in L/K/hr)
t½=0.6903/b (expressed in hr)

A value given as a limit tells only on which side of the number the result lay.

With “Ac-TTWEAWDRAIAEYAARIEALLRAAQEQQEKLEAALREL-NH2 [SEQ ID NO:10, TTWEAWDRAIAEYAARIEALLRAAQEQQEKLEAALREL]”, the “Helicity (%)” value in data set [1] was 77%. For the same substance, in data set [2], the “Tm (° C.)” value is 75 °C. In data set [3], the “Antiviral Activity (μg/ml) HIV-IIIB IC50” value is <0.10 µg/mL. Besides, the “Antiviral Activity (μg/ml) HIV-Res IC50” value in data set [4] was <0.10 µg/mL. In data set [5] (comment on Table 2), the “biological half-life relative to base sequence, in words” value is listed as “increased biological half-life”. Also, the clearance (as a rule, a measure of how efficiently the substance is removed, as volume per time) in data set [5] (cynomolgus monkey, plasma, iv, dosed intravenously) was < 0.333 mL/min/kg. The half-life (in general, how long it takes for the measured level to halve) in data set [5] (cynomolgus monkey, plasma, iv, dosed intravenously, read-out: Half-life (t ½; hr) (converted)) is 1260 min.
